Results reported in patent US20250114374A1, “BCL-2 INHIBITORS” (Newave Pharmaceutical Inc., priority 2021, published 2025).
Read-outs that look alike come from different tables or passages of the source.

Tested on: RS4; 11 with G101V mutation
Assay: In vitro anti-proliferation assay (ATPlite luminescence) in BCL-2-dependent ALL cell line RS4;11 with G101V mutation
Type: cell-based
Settings: read-out: RS411-G101V IC50
How it was run: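 RS4;11 G101V cells at about 1×10^4 per well were exposed to a range of compound concentrations for about 72 h in medium with 10% FBS. Cellular ATP was measured by ATPlite luminescence after lysis, and IC50 was derived from the dose-response.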

[1] = cellular anti-proliferative IC50, about 72 hours, medium with 10% FBS, ATPlite

IC50 (Homo sapiens, RS4-11, 72 h) | SMILES | IC50 [1]
 | COc1cc(CN2CCN(C3CC4(CCN(c5ccc(C(=O)NS(=O)(=O)c6ccc(NCC7CCC(C)(O)CC7)c([N+](=O)[O-])c6)c(N6c7cc8cc[nH]c8nc7O[C@H]7COCC[C@@H]76)c5)CC4)C3)[C@@H](c3ccccc3C)C2)cnc1OC (stereo partly drawn) [Example 149, 4-(2-((S)-4-((5,6-dimethoxypyridin-3-yl)methyl)-2-(o-tolyl)piperazin-1-yl)-7-azaspiro[3.5]nonan-7-yl)-N-((4-((((1r,4r)-4-hydroxy-4-methylcyclohexyl)methyl)amino)-3-nitrophenyl)sulfonyl)-2-((5aS,9aR)-6,7,9,9a-tetrahydro-1H-pyrano[3,4-b]pyrrolo[3′,2′:5,6]pyrido[3,2-e][1,4]oxazin-5(5aH)-yl)benzamide] | 28.3 nM
 | COc1cc(CN2CCN(C3CC4(CCN(c5ccc(C(=O)NS(=O)(=O)c6ccc(NCC7CCC(C)(O)CC7)c([N+](=O)[O-])c6)c(N6c7cc8cc[nH]c8nc7O[C@H]7COCC[C@@H]76)c5)CC4)C3)[C@@H](c3ccccc3OC(C)C)C2)cnc1N1CCOC[C@H]1C (stereo partly drawn) [Example 111, 2-[(3R,8S)-2,5-dioxa-9,15,17-triazatetracyclo[8.7.0.0^{3,8}.0^{12,16}]heptadeca-1(10),11,13,16-tetraen-9-yl]-4-{2-[(2S)-2-(2-isopropoxyphenyl)-4-({5-methoxy-6-[(3R)-3-methylmorpholin-4-yl]pyridin-3-yl}methyl)piperazin-1-yl]-7-azaspiro[3.5]nonan-7-yl}-N-[3-nitro-4-({[(1r,4r)-4-hydroxy-4-methylcyclohexyl]methyl}amino)benzenesulfonyl]benzamide] | 10.7 nM
 | CC(C)c1ccccc1[C@@H]1CN(Cc2ccc(F)c(F)c2)CCN1C1CC2(CCN(c3ccc(C(=O)NS(=O)(=O)c4ccc(NCC5CCOCC5)c([N+](=O)[O-])c4)c(N4c5cc6cc[nH]c6nc5O[C@H]5COCC[C@@H]54)c3)CC2)C1 [Example 165, 4-{2-[(2R)-4-[(3,4-difluorophenyl)methyl]-2-(2-isopropylphenyl)piperazin-1-yl]-7-azaspiro[3.5]nonan-7-yl}-2-[(3R,8S)-2,5-dioxa-9,15,17-triazatetracyclo[8.7.0.0^{3,8}.0^{12,16}]heptadeca-1(10),11,13,16-tetraen-9-yl]-N-{3-nitro-4-[(oxan-4-ylmethyl)amino]benzenesulfonyl}benzamide] | 10.9 nM
11.7 nM | COc1ccc(CN2CCN(C3CC4(CCN(c5ccc(C(=O)NS(=O)(=O)c6cc7c(c([N+](=O)[O-])c6)N[C@H](C6CCOCC6)CO7)c(N6c7cc8cc[nH]c8nc7O[C@H]7COCC[C@@H]76)c5)CC4)C3)[C@H](c3ccccc3OC(C)C)C2)cn1 [Example 258, 4-(2-((R)-2-(2-isopropoxyphenyl)-4-((6-methoxypyridin-3-yl)methyl)piperazin-1-yl)-7-azaspiro[3.5]nonan-7-yl)-N-(((R)-5-nitro-3-(tetrahydro-2H-pyran-4-yl)-3,4-dihydro-2H-benzo[b][1,4]oxazin-7-yl)sulfonyl)-2-((5aS,9aR)-6,7,9,9a-tetrahydro-1H-pyrano[3,4-b]pyrrolo[3′,2′:5,6]pyrido[3,2-e][1,4]oxazin-5(5aH)-yl)benzamide] | 
 | Cc1ccccc1[C@@H]1CN(Cc2cnc(N3CCOCC3)c(OC(C)C)c2)CCN1C1CC2(CCN(c3ccc(C(=O)NS(=O)(=O)c4ccc(NCC5CCC(C)(O)CC5)c([N+](=O)[O-])c4)c(N4c5cc6cc[nH]c6nc5O[C@H]5COCC[C@@H]54)c3)CC2)C1 (stereo partly drawn) [Example 145, 2-[(3R,8S)-2,5-dioxa-9,15,17-triazatetracyclo[8.7.0.0^{3,8}.0^{12,16}]heptadeca-1(10),11,13,16-tetraen-9-yl]-4-{2-[(2R)-4-{[5-isopropoxy-6-(morpholin-4-yl)pyridin-3-yl]methyl}-2-(2-methylphenyl)piperazin-1-yl]-7-azaspiro[3.5]nonan-7-yl}-N-[3-nitro-4-({[(1r,4r)-4-hydroxy-4-methylcyclohexyl]methyl}amino)benzenesulfonyl]benzamide] | 6.1 nM
